Experimental findings from patent publication US12098145B2 (Libra Therapeutics, Inc., priority 2022, dated 2024) are described below.

The target in this assay is T1, TRPML1 (Homo sapiens, UniProt Q9GZU1).
T1 construct: expressed in transfected cells; host or cells: HEK T-REx cells stably expressing GCaMP6f and TRPML1
Description: Cellular TRPML1 assay (FLIPR, GCaMP6f calcium read-out). The class given is cell-based. The gist of the method:
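Read-out is GCaMP6f fluorescence over 300 s after compound addition in Ca2+-free Tyrode's buffer, final DMSO 0.5%, on FLIPR Tetra. Cells are HEK T-REx stably co-expressing the indicator and TRPML1, plated 24 h earlier in Optimem + 0.5% FBS and pre-incubated ~10 min at room temperature.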

Setting [1] is: HEKT-REx/GCaMP6f/TRPML1 cells, FLIPR TETRA, kinetic response over 300 seconds, read-out: TRPML1 FLIPR pEC50 (converted).

Like-named read-outs stand apart in the source and are kept apart here.

T1 sequence (Q9GZU1 whole entry): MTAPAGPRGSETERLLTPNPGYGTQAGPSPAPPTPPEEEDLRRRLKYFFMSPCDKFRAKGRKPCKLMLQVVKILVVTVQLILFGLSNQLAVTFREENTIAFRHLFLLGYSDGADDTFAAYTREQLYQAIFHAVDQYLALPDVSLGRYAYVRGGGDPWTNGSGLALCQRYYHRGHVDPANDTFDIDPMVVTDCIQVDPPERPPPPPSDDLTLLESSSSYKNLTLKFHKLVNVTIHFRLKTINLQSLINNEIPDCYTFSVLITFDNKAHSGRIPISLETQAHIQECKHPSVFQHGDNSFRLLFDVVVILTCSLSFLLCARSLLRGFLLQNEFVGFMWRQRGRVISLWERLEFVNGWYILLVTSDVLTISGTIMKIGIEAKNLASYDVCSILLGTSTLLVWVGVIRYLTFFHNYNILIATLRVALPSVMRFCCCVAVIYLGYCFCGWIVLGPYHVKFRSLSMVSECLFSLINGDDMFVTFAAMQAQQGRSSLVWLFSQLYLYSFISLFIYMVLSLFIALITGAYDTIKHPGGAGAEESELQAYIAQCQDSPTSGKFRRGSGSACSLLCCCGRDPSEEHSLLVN

On to `O=C(Nc1cc(F)c(OC2CC3C[C@@H]3C2)c(F)c1)c1nc(N2CC3CC2C3)oc1CC(F)(F)F` (stereo partly drawn) [Example 175, 2-(2-azabicyclo[2.1.1]hexan-2-yl)-N-(4-(cis-bicyclo[3.1.0]hexan-3-yloxy)-3,5-difluorophenyl)-5-(2,2,2-trifluoroethyl)oxazole-4-carboxamide], for which, under setting [1], the EC50 is 10 to 1000 nM. As for `CC1CN(c2nc(C(=O)Nc3cc(F)c(OC4CC5C[C@H]5C4)c(F)c3)c(CC(F)(F)F)o2)CC(C)O1` (stereo partly drawn) [Example 176, N-(4-(cis-bicyclo[3.1.0]hexan-3-yloxy)-3,5-difluorophenyl)-2-(2,6-dimethylmorpholino)-5-(2,2,2-trifluoroethyl)oxazole-4-carboxamide], the EC50 under setting [1] was 10000 to 100000 nM.

Take `O=C(Nc1cc(F)c(O[C@@H]2C[C@@H]3C[C@@H]3C2)c(F)c1)c1nc(N2CCOCC2)oc1CC(F)(F)F` [Example 181, N-(4-(cis-bicyclo[3.1.0]hexan-3-yloxy)-3,5-difluorophenyl)-2-morpholino-5-(2,2,2-trifluoroethyl)oxazole-4-carboxamide]: under setting [1], the EC50 is 1000 to 10000 nM.

Take `O=C(Nc1cc(F)c(OC2CC3C[C@@H]3C2)c(F)c1)c1nc(N2CC3CC2CO3)oc1CC(F)(F)F` (stereo partly drawn) [Example 182, 2-(2-oxa-5-azabicyclo[2.2.1]heptan-5-yl)-N-(4-(cis-bicyclo[3.1.0]hexan-3-yloxy)-3,5-difluorophenyl)-5-(2,2,2-trifluoroethyl)oxazole-4-carboxamide]: the EC50 under setting [1] is 1000 to 10000 nM. As for `CC1(C)CN(c2nc(C(=O)Nc3cc(F)c(O[C@@H]4C[C@@H]5C[C@@H]5C4)c(F)c3)c(CC(F)(F)F)o2)CCO1` [Example 184, N-(4-(cis-bicyclo[3.1.0]hexan-3-yloxy)-3,5-difluorophenyl)-2-(2,2-dimethylmorpholino)-5-(2,2,2-trifluoroethyl)oxazole-4-carboxamide], the EC50 under setting [1] was 1000 to 10000 nM. On the same count and under the same terms, the same measure for `O=C(Nc1ccc(OC2CC3C[C@@H]3C2)c(F)c1)c1nc(N2CC3CCOC3C2)oc1CC(F)(F)F` (stereo partly drawn) [Example 187, N-(4-(cis-bicyclo[3.1.0]hexan-3-yloxy)-3-fluorophenyl)-2-(hexahydro-5H-furo[2,3-c]pyrrol-5-yl)-5-(2,2,2-trifluoroethyl)oxazole-4-carboxamide]: 10 to 1000 nM. For `O=C(Nc1cc(F)c(O[C@@H]2C[C@@H]3C[C@@H]3C2)c(F)c1)c1nc(N2CC3(CCOCC3)C2)oc1CC(F)(F)F` [Example 188, N-(4-(cis-bicyclo[3.1.0]hexan-3-yloxy)-3,5-difluorophenyl)-2-(7-oxa-2-azaspiro[3.5]nonan-2-yl)-5-(2,2,2-trifluoroethyl)oxazole-4-carboxamide], the EC50 under setting [1] is 10 to 1000 nM. With `O=C(Nc1cc(F)c(O[C@@H]2C[C@@H]3C[C@@H]3C2)c(F)c1)c1nc(N2CC3(CCOC3)C2)oc1CC(F)(F)F` [Example 189, N-(4-(cis-bicyclo[3.1.0]hexan-3-yloxy)-3,5-difluorophenyl)-2-(6-oxa-2-azaspiro[3.4]octan-2-yl)-5-(2,2,2-trifluoroethyl)oxazole-4-carboxamide], under setting [1], the EC50 was 10 to 1000 nM. Consider `O=C(Nc1ccc(OCC2CC3CC3C2)c(F)c1)c1nc(N2CCCC2)oc1CC(F)(F)F` (stereo not drawn) [Example 190, N-(4-(bicyclo[3.1.0]hexan-3-ylmethoxy)-3-fluorophenyl)-2-(pyrrolidin-1-yl)-5-(2,2,2-trifluoroethyl)oxazole-4-carboxamide], for which, under setting [1], the EC50 is 1000 to 10000 nM.

For the compound `CCC1(CC)CN(c2nc(C(=O)Nc3cnc(OC4CC5C[C@H]5C4)c(F)c3)c(CC(F)(F)F)o2)C1` (stereo partly drawn) [Example 191, N-(6-(cis-bicyclo[3.1.0]hexan-3-yloxy)-5-fluoropyridin-3-yl)-2-(3,3-diethylazetidin-1-yl)-5-(2,2,2-trifluoroethyl)oxazole-4-carboxamide], under setting [1], the EC50 was 1000 to 10000 nM. Still for that read-out and setting: in the case of `CCC1(CC)CN(c2nc(C(=O)Nc3cc(C)c(NC4CC5CC(C5)C4)c(F)c3)c(CC(F)(F)F)o2)C1` (stereo not drawn) [Example 192, N-(4-(bicyclo[3.1.1]heptan-3-ylamino)-3-fluoro-5-methylphenyl)-2-(3,3-diethylazetidin-1-yl)-5-(2,2,2-trifluoroethyl)oxazole-4-carboxamide] it was 1000 to 10000 nM; in that of `Cc1cc(NC(=O)c2nc(N3CCCC3)oc2CC(F)(F)F)cc(F)c1NC1C2CCCC1CC2` (stereo not drawn) [Example 194, N-(4-(bicyclo[3.2.1]octan-8-ylamino)-3-fluoro-5-methylphenyl)-2-(pyrrolidin-1-yl)-5-(2,2,2-trifluoroethyl)oxazole-4-carboxamide], 10000 to 100000 nM. Same read-out and setting: in the case of `O=C(Nc1cc(F)c(N2CCC3OCCC32)c(F)c1)c1nc(N2CCCC2)oc1CC(F)(F)F` (stereo not drawn) [Example 198, N-(3,5-difluoro-4-(hexahydro-4H-furo[3,2-b]pyrrol-4-yl)phenyl)-2-(pyrrolidin-1-yl)-5-(2,2,2-trifluoroethyl)oxazole-4-carboxamide] it was 1000 to 10000 nM.

For the compound `O=C(Nc1cc(F)c(N2C3CCCC2CC3)c(F)c1)c1nc(N2CCCOCC2)oc1CC(F)(F)F` [Example 199, N-(4-(8-azabicyclo[3.2.1]octan-8-yl)-3,5-difluorophenyl)-2-(1,4-oxazepan-4-yl)-5-(2,2,2-trifluoroethyl)oxazole-4-carboxamide], the EC50 under setting [1] is 1000 to 10000 nM. As for `CCC1(OC)CN(c2nc(C(=O)Nc3cc(F)c(N4CCC5CC5C4)c(F)c3)c(CC(F)(F)F)o2)C1` (stereo not drawn) [Example 204, N-(4-(3-azabicyclo[4.1.0]heptan-3-yl)-3,5-difluorophenyl)-2-(3-ethyl-3-methoxyazetidin-1-yl)-5-(2,2,2-trifluoroethyl)oxazole-4-carboxamide], the EC50 under setting [1] is 10 to 1000 nM. Still for that read-out and setting: in the case of `CCC1(OC)CN(c2nc(C(=O)Nc3cc(F)c(N4CCC5CCCC54)c(F)c3)c(CC(F)(F)F)o2)C1` (stereo not drawn) [Example 205, N-(3,5-difluoro-4-(hexahydrocyclopenta[b]pyrrol-1(2H)-yl)phenyl)-2-(3-ethyl-3-methoxyazetidin-1-yl)-5-(2,2,2-trifluoroethyl)oxazole-4-carboxamide] it was 1000 to 10000 nM. For the compound `O=C(Nc1cc(F)c(N2CC3CC(C3)C2)c(F)c1)c1nc(N2CCC3(COC3)C2)oc1CC(F)(F)F` [Example 208, N-(4-(3-azabicyclo[3.1.1]heptan-3-yl)-3,5-difluorophenyl)-2-(2-oxa-6-azaspiro[3.4]octan-6-yl)-5-(2,2,2-trifluoroethyl)oxazole-4-carboxamide], the EC50 fell in the range of 10 to 1000 nM. Same read-out and setting: the same measure for `O=C(Nc1cc(F)c(N2CC3CC(C3)C2)c(F)c1)c1nc(N2CCCC2)oc1CC(F)(F)F` [Example 209, N-(4-(3-azabicyclo[3.1.1]heptan-3-yl)-3,5-difluorophenyl)-2-(pyrrolidin-1-yl)-5-(2,2,2-trifluoroethyl)oxazole-4-carboxamide]: 10 to 1000 nM. Take `O=C(Nc1cc(F)c(N2C3CCCC2CC3)c(F)c1)c1nc(N2CCCC2)oc1CC(F)(F)F` [Example 210, N-(4-(8-azabicyclo[3.2.1]octan-8-yl)-3,5-difluorophenyl)-2-(pyrrolidin-1-yl)-5-(2,2,2-trifluoroethyl)oxazole-4-carboxamide]: the EC50 is 10 to 1000 nM. Regarding `CCC1(CC)CN(c2nc(C(=O)Nc3cc(F)c(N4CCC5CC5C4)c(F)c3)c(CC(F)(F)F)o2)C1` (stereo not drawn) [Example 211, N-(4-(3-azabicyclo[4.1.0]heptan-3-yl)-3,5-difluorophenyl)-2-(3,3-diethylazetidin-1-yl)-5-(2,2,2-trifluoroethyl)oxazole-4-carboxamide], under setting [1], the EC50 was 10 to 1000 nM. On the same count and under the same terms, the same measure for `CCC1(CC)CN(c2nc(C(=O)Nc3ccc(N4CCC5CC5C4)c(F)c3)c(CC(F)(F)F)o2)C1` (stereo not drawn) [Example 212, N-(4-(3-azabicyclo[4.1.0]heptan-3-yl)-3-fluorophenyl)-2-(3,3-diethylazetidin-1-yl)-5-(2,2,2-trifluoroethyl)oxazole-4-carboxamide]: 10 to 1000 nM; for `CC1(C)CCCN(c2c(F)cc(NC(=O)c3nc(N4CCCC4)oc3CC(F)(F)F)cc2F)C1` [Example 213, N-(4-(3,3-dimethylpiperidin-1-yl)-3,5-difluorophenyl)-2-(pyrrolidin-1-yl)-5-(2,2,2-trifluoroethyl)oxazole-4-carboxamide]: 10 to 1000 nM. Still for that read-out and setting: the same measure for `O=C(Nc1cc(F)c(N2CCC3CCCC32)c(F)c1)c1nc(N2CCCC2)oc1CC(F)(F)F` (stereo not drawn) [Example 214, N-(3,5-difluoro-4-(hexahydrocyclopenta[b]pyrrol-1(2H)-yl)phenyl)-2-(pyrrolidin-1-yl)-5-(2,2,2-trifluoroethyl)oxazole-4-carboxamide]: 10 to 1000 nM; for `CCC1(CC)CN(c2nc(C(=O)Nc3cc(F)c(N4CCCCC4)c(F)c3)c(CC(F)(F)F)o2)C1` [Example 215, 2-(3,3-diethylazetidin-1-yl)-N-(3,5-difluoro-4-(piperidin-1-yl)phenyl)-5-(2,2,2-trifluoroethyl)oxazole-4-carboxamide]: 10 to 1000 nM. Same read-out and setting: the same measure for `CCC1(CC)CN(c2nc(C(=O)Nc3ccc(N4CCCCC4)c(F)c3)c(CC(F)(F)F)o2)C1` [Example 216, 2-(3,3-diethylazetidin-1-yl)-N-(3-fluoro-4-(piperidin-1-yl)phenyl)-5-(2,2,2-trifluoroethyl)oxazole-4-carboxamide]: 10 to 1000 nM; for `Cc1cc(NC(=O)c2nc(N3CCCC3)oc2CC(F)(F)F)cc(F)c1N(C)C1CC2CC(C2)C1` (stereo not drawn) [Example 217, N-(4-(bicyclo[3.1.1]heptan-3-yl(methyl)amino)-3-fluoro-5-methylphenyl)-2-(pyrrolidin-1-yl)-5-(2,2,2-trifluoroethyl)oxazole-4-carboxamide]: 10000 to 100000 nM. Consider `O=C(Nc1cc(F)c(CN2CC3CC3C2)c(F)c1)c1nc(N2CCCC2)oc1CC(F)(F)F` (stereo not drawn) [Example 218, N-(4-{3-azabicyclo [3.1.0]hexan-3-ylmethyl}-3,5-difluorophenyl)-2-(pyrrolidin-1-yl)-5-(2,2,2-trifluoroethyl)-1,3-oxazole-4-carboxamide], for which, under setting [1], the EC50 was 10000 to 100000 nM.
